Literature values, collected in patent US20060078974A1, “Novel purified hydroxymethylglutaryl-CoA reductases and structures thereof” (Affinium Pharmaceuticals, Inc., priority 2004, published 2006).

Target: S. aureus HMGR
Details: inhibition of S. aureus HMGR; reported value

For `CC(C)n1c(/C=C/[C@@H](O)C[C@@H](O)CC(=O)O)c(-c2ccc(F)cc2)c2ccccc21` (racemic) [Fluvastatin], the Ki is given as roughly 320 µM.
